Assay [1] deals with FGFR1 (h) (Homo sapiens, UniProt P11362). Put plainly: FGFR1 (enzymatic assay), TR-FRET. It is filed as biochemical. To be noted: read-out: FGFR 1 pIC50 (converted). On the technique in general: In TR-FRET formats the signal depends on donor and acceptor labels being close together.
In assay [2] the target is FGFR3 (h) (Homo sapiens, UniProt P22607). Nature of the assay: FGFR3 (enzymatic assay), TR-FRET. It is filed as biochemical. To be noted: read-out: FGFR 3 pIC50 (converted). An excerpt:
Time-Resolved Fluorescence Resonance Energy Transfer (TR-FRET) signal (ex340 nm.

Assay [3] addresses FGFR4 (h) (Homo sapiens, UniProt P22455). Nature of the assay: FGFR4 (enzymatic assay), TR-FRET. It is filed as biochemical. To be noted: FGFR 4 pIC50, enzymatic assay.
Assay [4] has as its system Ba/F3-FGFR1-transfected cells. Put plainly: Ba/F3-FGFR1 (plus IL3) cellular proliferation assay, counterscreen with 10 ng/ml murine IL3. The format is cell-based. To be noted: plus IL3 (10 ng/ml murine IL3, counterscreen); read-out: BAF3-FGFR1 (PLUS IL3) pIC50 (converted). A digest of the protocol: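 Ba/F3-FGFR1 cells (20000/well) in RPMI-1640 with 10% FBS exposed to compound for 24 h at 37° C., 5% CO2, then Alamar Blue (resazurin) added for 4 h; fluorescence read at ex 540/em 590 nm. Counterscreen run identically with 10 ng/ml murine IL3.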
In general terms: A counterscreen serves to expose hits that act by an unwanted route or on another target.

Assay [5] concerns the target T1, Ba/F3-FGFR3-transfected cells (Homo sapiens, UniProt P22607).
T1 construct: BAF3-FGFR3 (MIN IL3) pIC50; other: minus IL3
Put plainly: Ba/F3-FGFR3 (minus IL3) cellular proliferation assay, Alamar Blue. The format is cell-based. A digest of the protocol:
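Read-out: resazurin-based Alamar Blue fluorescence (ex 540 nm, em 590 nm) after a 4 h dye incubation. FGFR3-transfected Ba/F3 cells, 20000 per well, are exposed to compound for 24 h at 37° C in RPMI-1640/10% FBS. Plus-IL3 counterscreen adds 10 ng/ml murine IL3.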

Molecules are shown by their SMILES.

T1 sequence (P22607 whole entry, change not shown): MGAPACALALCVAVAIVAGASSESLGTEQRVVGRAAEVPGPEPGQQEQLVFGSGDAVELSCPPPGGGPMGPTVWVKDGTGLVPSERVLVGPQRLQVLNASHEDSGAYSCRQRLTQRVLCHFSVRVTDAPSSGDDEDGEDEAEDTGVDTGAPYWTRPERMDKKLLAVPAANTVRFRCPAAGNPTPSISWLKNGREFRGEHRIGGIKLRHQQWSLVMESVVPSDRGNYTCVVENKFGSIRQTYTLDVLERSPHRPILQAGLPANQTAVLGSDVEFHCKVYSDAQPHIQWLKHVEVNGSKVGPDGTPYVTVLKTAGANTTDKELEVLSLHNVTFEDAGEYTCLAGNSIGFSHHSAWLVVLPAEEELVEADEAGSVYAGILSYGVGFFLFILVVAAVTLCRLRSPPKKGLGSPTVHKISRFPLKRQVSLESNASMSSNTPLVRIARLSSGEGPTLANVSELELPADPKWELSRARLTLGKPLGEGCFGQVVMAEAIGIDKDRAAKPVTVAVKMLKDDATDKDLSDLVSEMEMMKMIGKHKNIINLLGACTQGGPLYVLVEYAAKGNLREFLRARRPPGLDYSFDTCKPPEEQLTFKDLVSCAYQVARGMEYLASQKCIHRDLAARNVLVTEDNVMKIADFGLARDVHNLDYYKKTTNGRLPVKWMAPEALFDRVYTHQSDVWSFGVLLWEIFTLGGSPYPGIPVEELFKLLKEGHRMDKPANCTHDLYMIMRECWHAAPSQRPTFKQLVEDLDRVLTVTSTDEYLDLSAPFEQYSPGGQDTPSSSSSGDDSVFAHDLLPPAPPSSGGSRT
Chain of FGFR4 (h) (P22455 22-802): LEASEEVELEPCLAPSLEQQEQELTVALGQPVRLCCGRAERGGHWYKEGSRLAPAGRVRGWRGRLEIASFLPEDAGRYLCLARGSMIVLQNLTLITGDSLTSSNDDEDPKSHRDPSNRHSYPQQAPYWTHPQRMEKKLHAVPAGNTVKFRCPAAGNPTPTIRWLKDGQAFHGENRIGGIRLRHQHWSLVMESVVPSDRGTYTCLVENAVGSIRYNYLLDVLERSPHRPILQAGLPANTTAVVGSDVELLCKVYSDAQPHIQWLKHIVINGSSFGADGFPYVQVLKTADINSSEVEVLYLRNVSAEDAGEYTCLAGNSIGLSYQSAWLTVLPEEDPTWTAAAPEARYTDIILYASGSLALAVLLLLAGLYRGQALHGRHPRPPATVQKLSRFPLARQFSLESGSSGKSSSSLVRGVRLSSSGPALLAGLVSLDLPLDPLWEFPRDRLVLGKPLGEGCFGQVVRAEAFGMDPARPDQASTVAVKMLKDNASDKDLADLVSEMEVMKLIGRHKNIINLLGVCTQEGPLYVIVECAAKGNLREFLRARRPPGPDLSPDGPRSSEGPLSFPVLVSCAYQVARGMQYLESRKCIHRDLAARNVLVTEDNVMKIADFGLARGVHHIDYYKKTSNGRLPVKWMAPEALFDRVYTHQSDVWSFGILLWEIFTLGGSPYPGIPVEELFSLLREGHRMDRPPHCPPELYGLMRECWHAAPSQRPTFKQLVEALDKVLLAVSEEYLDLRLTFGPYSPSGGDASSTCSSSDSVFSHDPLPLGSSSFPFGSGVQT
Chain of FGFR3 (h) (P22607 23-806): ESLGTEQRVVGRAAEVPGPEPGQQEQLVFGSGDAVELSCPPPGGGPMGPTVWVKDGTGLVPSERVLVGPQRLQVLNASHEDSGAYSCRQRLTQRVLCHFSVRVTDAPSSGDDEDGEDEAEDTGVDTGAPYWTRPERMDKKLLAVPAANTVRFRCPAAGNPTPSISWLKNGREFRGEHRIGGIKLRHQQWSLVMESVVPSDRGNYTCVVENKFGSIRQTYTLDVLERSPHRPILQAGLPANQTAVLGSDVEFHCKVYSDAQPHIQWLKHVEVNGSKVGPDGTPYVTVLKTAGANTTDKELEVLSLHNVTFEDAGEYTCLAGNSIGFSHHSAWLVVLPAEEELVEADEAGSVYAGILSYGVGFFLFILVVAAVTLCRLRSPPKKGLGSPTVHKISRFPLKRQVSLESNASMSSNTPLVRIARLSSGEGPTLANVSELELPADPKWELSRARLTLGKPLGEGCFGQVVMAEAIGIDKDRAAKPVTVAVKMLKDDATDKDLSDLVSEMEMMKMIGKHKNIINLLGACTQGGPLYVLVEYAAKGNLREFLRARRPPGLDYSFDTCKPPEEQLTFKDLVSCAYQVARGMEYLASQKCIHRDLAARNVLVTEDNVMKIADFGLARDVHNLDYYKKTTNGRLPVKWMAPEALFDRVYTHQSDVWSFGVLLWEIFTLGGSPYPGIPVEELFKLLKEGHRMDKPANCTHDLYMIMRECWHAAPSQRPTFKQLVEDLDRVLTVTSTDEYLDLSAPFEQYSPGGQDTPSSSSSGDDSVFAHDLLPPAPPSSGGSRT
Chain of FGFR1 (h) (P11362 22-822): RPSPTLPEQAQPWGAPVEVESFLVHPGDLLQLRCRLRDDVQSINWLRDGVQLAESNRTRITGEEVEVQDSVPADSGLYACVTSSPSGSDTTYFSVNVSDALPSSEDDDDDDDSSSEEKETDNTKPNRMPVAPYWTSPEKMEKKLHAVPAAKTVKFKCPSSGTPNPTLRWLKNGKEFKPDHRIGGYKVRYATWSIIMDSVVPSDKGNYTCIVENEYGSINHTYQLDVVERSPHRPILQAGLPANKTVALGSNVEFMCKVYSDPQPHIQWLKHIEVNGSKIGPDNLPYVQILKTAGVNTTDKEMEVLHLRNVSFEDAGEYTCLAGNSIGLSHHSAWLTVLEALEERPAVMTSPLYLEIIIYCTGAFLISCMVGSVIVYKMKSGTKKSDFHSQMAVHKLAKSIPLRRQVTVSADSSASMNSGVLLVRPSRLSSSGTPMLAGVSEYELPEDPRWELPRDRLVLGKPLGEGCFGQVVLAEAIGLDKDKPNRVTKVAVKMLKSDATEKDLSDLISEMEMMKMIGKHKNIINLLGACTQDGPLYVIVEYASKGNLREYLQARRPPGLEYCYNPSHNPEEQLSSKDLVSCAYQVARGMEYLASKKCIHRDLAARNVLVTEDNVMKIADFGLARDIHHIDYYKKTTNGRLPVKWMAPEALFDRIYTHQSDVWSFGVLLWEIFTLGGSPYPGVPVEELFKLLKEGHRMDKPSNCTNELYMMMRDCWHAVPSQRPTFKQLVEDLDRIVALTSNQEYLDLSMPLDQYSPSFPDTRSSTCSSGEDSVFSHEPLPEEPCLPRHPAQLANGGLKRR

In the case of `COc1cc(OC)c(F)c(N(CC2CCC(=O)N2)c2ccc3ncc(-c4cnn(CC(C)(C)O)c4)nc3n2)c1` (centres unmarked) [Compound 285], the IC50 was 2.34 nM in assay [1], 2.75 nM in assay [2], 7.24 nM in assay [3] and greater than 10000 nM in assay [4]. Further, the “BAF3-FGFR3 (MIN IL3) pIC50” value in assay [5] is given as 6.84.

With `COc1cc(OC)cc(N(CC2CC(O)C(=O)N2)c2ccc3ncc(-c4cnn(C)c4)nc3n2)c1` (centres unmarked) [Compound 271], the IC50 was 4.57 nM in assay [1], 2.45 nM in assay [2], 7.76 nM in assay [3] and greater than 10000 nM in assay [4]. Also, the “BAF3-FGFR3 (MIN IL3) pIC50” value in assay [5] amounted to 6.27.

Regarding `COc1cc(OC)c(F)c(N(CC2CCC(=O)N2)c2ccc3ncc(-c4cnn(C5CNC5)c4)nc3n2)c1` (centres unmarked) [Compound 299], the IC50 in assay [1] is 1.78 nM; in assay [2] it was 3.55 nM; in assay [3], 8.91 nM; in assay [4], greater than 10000 nM. Moreover, the “BAF3-FGFR3 (MIN IL3) pIC50” value in assay [5] is 5.94.

On to `COc1cc(OC)c(F)c(N(CC(=O)NC(C)C)c2ccc3ncc(-c4cnn(C)c4)nc3n2)c1` [Compound 249], for which the IC50 in assay [1] was 3.89 nM; in assay [2], 7.59 nM; in assay [3], 33.1 nM; in assay [4] it was greater than 10000 nM. The “BAF3-FGFR3 (MIN IL3) pIC50” value in assay [5] is 6.83.

Turning to `COc1cc(OC)cc(N(CC(O)COC(C)C)c2ccc3ncc(-c4cnn(CC(O)COC(C)C)c4)nc3n2)c1` (centres unmarked) [Compound 250], the IC50 is 4.17 nM in assay [1], 4.79 nM in assay [2], 8.71 nM in assay [3] and greater than 10000 nM in assay [4]. Moreover, the “BAF3-FGFR3 (MIN IL3) pIC50” value in assay [5] is on record as roughly 7.09.

Regarding `COc1cc(OC)c(F)c(N(Cc2ncc[nH]2)c2ccc3ncc(-c4cnn(CCS(C)(=O)=O)c4)nc3n2)c1` [Compound 264], the IC50 is 0.55 nM in assay [1], 1.41 nM in assay [2], 1.38 nM in assay [3] and greater than 10000 nM in assay [4]. For the same compound, in assay [5], the “BAF3-FGFR3 (MIN IL3) pIC50” value is 8.09.

Turning to `COc1cc(OC)cc(N(Cc2ncc[nH]2)c2ccc3ncc(N4CCOCC4)nc3n2)c1` [Compound 293], the IC50 was 1.62 nM in assay [1], 1.58 nM in assay [2], 4.79 nM in assay [3] and greater than 10000 nM in assay [4]. Further, the “BAF3-FGFR3 (MIN IL3) pIC50” value in assay [5] was determined as 7.59.

With `COc1cc(OC)c(F)c(N(CC(O)c2cnn(C)c2)c2ccc3ncc(-c4cnn(C)c4)nc3n2)c1` (centres unmarked) [Compound 244], the IC50 in assay [1] was 5.89 nM; in assay [2], 4.07 nM; in assay [3], 16.2 nM; in assay [4], greater than 10000 nM. Also, in assay [5], the “BAF3-FGFR3 (MIN IL3) pIC50” value is 6.73.

As for `COc1cc(/N=c2\ccc3ncc(-c4cnn(C)c4)nc3n2CC2CC(O)C(=O)N2)cc(OC)c1` (centres unmarked) [Compound 272], the IC50 in assay [1] is 0.977 nM; in assay [2], 1.45 nM; in assay [3], 5.25 nM; in assay [4], greater than 10000 nM. The “BAF3-FGFR3 (MIN IL3) pIC50” value in assay [5] is reported as 6.73.

For `COc1cc(OC)c(F)c(N(CC(C)(C)O)c2ccc3ncc(-c4cnn(C)c4)nc3n2)c1` [Compound 245], the IC50 in assay [1] was 3.63 nM; in assay [2], 3.31 nM; in assay [3] it was 15.8 nM; in assay [4], greater than 10000 nM. In assay [5], the “BAF3-FGFR3 (MIN IL3) pIC50” value is listed as 7.07.

As for `COc1cc(OC)cc(N(Cc2c[nH]nn2)c2ccc3ncc(-c4cnn(C)c4)nc3n2)c1` [Compound 251], the IC50 in assay [1] is 1.32 nM; in assay [2] it was 0.661 nM; in assay [3], 2.69 nM; in assay [4], greater than 10000 nM. Further, the “BAF3-FGFR3 (MIN IL3) pIC50” value in assay [5] was roughly 7.6.

Take `COc1cc(/N=c2\ccc3ncc(-c4cnn(C)c4)nc3n2CC(C)(C)O)cc(OC)c1` [Compound 277]: the IC50 in assay [1] is 0.871 nM; in assay [2] it was 1.07 nM; in assay [3] it was 4.68 nM; in assay [4], greater than 10000 nM. Besides, in assay [5], the “BAF3-FGFR3 (MIN IL3) pIC50” value is reported as 7.16.

On to `COc1cc(/N=c2\ccc3ncc(-c4cnn(C)c4)nc3n2CC2CCC(=O)N2CCO)c(F)c(OC)c1` (centres unmarked) [Compound 247], for which the IC50 is 0.603 nM in assay [1], 1.32 nM in assay [2], 1.82 nM in assay [3] and greater than 10000 nM in assay [4]. Besides, in assay [5], the “BAF3-FGFR3 (MIN IL3) pIC50” value was roughly 7.7.

For the compound `COc1cc(OC)c(F)c(N(Cc2ncc[nH]2)c2ccc3ncc(-c4cnn(CCCN)c4)nc3n2)c1` [Compound 295], the IC50 in assay [1] is 0.562 nM; in assay [2], 1.29 nM; in assay [3], 2.4 nM; in assay [4] it was greater than 10000 nM. Moreover, in assay [5], the “BAF3-FGFR3 (MIN IL3) pIC50” value is 8.17.

As to `COc1cc(OC)c(F)c(N(CC2CC2)c2ccc3ncc(-c4cnn(C)c4)nc3n2)c1F` (single isomer, unassigned) [Compound 268], the IC50 in assay [1] is 0.912 nM; in assay [2] it was 1.86 nM; in assay [3], 2.57 nM; in assay [4], greater than 10000 nM. Moreover, the “BAF3-FGFR3 (MIN IL3) pIC50” value in assay [5] was 7.74.

Turning to `COc1cc(OC)c(F)c(N(CC(C)(C)O)c2ccc3ncc(-c4cnn(C)c4)nc3n2)c1F` [Compound 278], the IC50 is 1.62 nM in assay [1], 2.95 nM in assay [2], 4.9 nM in assay [3] and greater than 10000 nM in assay [4]. Further, the “BAF3-FGFR3 (MIN IL3) pIC50” value in assay [5] is 7.73.

In the case of `CCn1/c(=N/c2c(F)c(OC)cc(OC)c2F)ccc2ncc(-c3cnn(C)c3)nc21` [Compound 257], the IC50 is 0.331 nM in assay [1], 0.692 nM in assay [2], 0.457 nM in assay [3] and greater than 10000 nM in assay [4]. In addition, the “BAF3-FGFR3 (MIN IL3) pIC50” value in assay [5] is recorded as roughly 8.66.

Take `COc1cc(OC)c(F)c(N(Cc2noc(C)n2)c2ccc3ncc(-c4cnn(C)c4)nc3n2)c1` [Compound 297]: the IC50 in assay [1] is 0.794 nM; in assay [2], 1.7 nM; in assay [3] it was 3.02 nM; in assay [4], greater than 10000 nM. Also, the “BAF3-FGFR3 (MIN IL3) pIC50” value in assay [5] is on record as 7.69.

Turning to `COc1cc(OC)c(F)c(N(Cc2ncc[nH]2)c2ccc3ncc(N4CCOCC4)nc3n2)c1` [Compound 291], the IC50 was 0.871 nM in assay [1], 1.2 nM in assay [2], 3.39 nM in assay [3] and greater than 10000 nM in assay [4]. Besides, in assay [5], the “BAF3-FGFR3 (MIN IL3) pIC50” value was 7.73.

Regarding `COc1cc(/N=c2\ccc3ncc(-c4cnn(CC(C)(C)O)c4)nc3n2CC2CCC(=O)N2)c(F)c(OC)c1` (centres unmarked) [Compound 286], the IC50 is roughly 1.55 nM in assay [1], 1.35 nM in assay [2], 3.89 nM in assay [3] and greater than 10000 nM in assay [4]. The “BAF3-FGFR3 (MIN IL3) pIC50” value in assay [5] is reported as 7.66.

On to `COc1cc(/N=c2\ccc3ncc(-c4cnn(C)c4)nc3n2CC2CC(O)C(=O)N2)c(F)c(OC)c1` (centres unmarked) [Compound 270], for which the IC50 in assay [1] is 0.776 nM; in assay [2], 1.1 nM; in assay [3] it was 2.29 nM; in assay [4], greater than 10000 nM. Further, the “BAF3-FGFR3 (MIN IL3) pIC50” value in assay [5] is 7.00.

Turning to `COc1cc(OC)cc(N(c2ccc3ncc(-c4cnn(C)c4)nc3n2)C(C)c2ncc[nH]2)c1` (centres unmarked) [Compound 280], the IC50 is 0.851 nM in assay [1], 1.86 nM in assay [2], 2.34 nM in assay [3] and greater than 10000 nM in assay [4]. Moreover, the “BAF3-FGFR3 (MIN IL3) pIC50” value in assay [5] is recorded as roughly 8.63.

`COc1cc(OC)c(F)c(N(CC2CC(O)C(=O)N2)c2ccc3ncc(-c4cnn(C)c4)nc3n2)c1` (centres unmarked) [Compound 269]: the IC50 was 1.62 nM in assay [1], 2.14 nM in assay [2], 3.09 nM in assay [3] and greater than 10000 nM in assay [4]. The “BAF3-FGFR3 (MIN IL3) pIC50” value in assay [5] is given as roughly 7.1.

On to `COc1cc(OC)c(C)c(N(Cc2ncc[nH]2)c2ccc3ncc(-c4cnn(C)c4)nc3n2)c1` [Compound 273], for which the IC50 was 1.15 nM in assay [1], 3.16 nM in assay [2], 2.82 nM in assay [3] and greater than 10000 nM in assay [4]. In addition, the “BAF3-FGFR3 (MIN IL3) pIC50” value in assay [5] is on record as roughly 8.60.

`COc1cc(OC)c(F)c(N(CC(=O)N2CCNCC2)c2ccc3ncc(-c4cnn(C)c4)nc3n2)c1` [Compound 262]: the IC50 is 7.24 nM in assay [1], 17.4 nM in assay [2], 55 nM in assay [3] and greater than 10000 nM in assay [4]. Further, in assay [5], the “BAF3-FGFR3 (MIN IL3) pIC50” value was roughly 6.17.

On to `COc1cc(OC)c(F)c(N(Cc2ncc[nH]2)c2ccc3ncc(-c4cnn(C5COC5)c4)nc3n2)c1` [Compound 253], for which the IC50 in assay [1] was 0.603 nM; in assay [2] it was 1.35 nM; in assay [3], 1.91 nM; in assay [4], greater than 10000 nM. In addition, the “BAF3-FGFR3 (MIN IL3) pIC50” value in assay [5] is roughly 8.63.

As to `COc1cc(OC)c(F)c(N(c2ccc3ncc(-c4cnn(C)c4)nc3n2)C(C)c2ncc[nH]2)c1` (centres unmarked) [Compound 287], the IC50 in assay [1] was 0.851 nM; in assay [2] it was 2.14 nM; in assay [3], 2.14 nM; in assay [4], greater than 10000 nM. The “BAF3-FGFR3 (MIN IL3) pIC50” value in assay [5] is roughly 8.54.

Take `COc1cc(OC)c(F)c(N(Cc2c[nH]nn2)c2ccc3ncc(-c4cnn(C)c4)nc3n2)c1` [Compound 258]: the IC50 in assay [1] was 0.55 nM; in assay [2] it was 0.676 nM; in assay [3], 1.32 nM; in assay [4], greater than 10000 nM. For the same compound, the “BAF3-FGFR3 (MIN IL3) pIC50” value in assay [5] came to 7.91.

The values are drawn from patent US9309242B2, “Substituted pyrido[2,3-b]pyrazines as FGFR kinase inhibitors” (priority 2011, dated 2016).
